Test results reported in patent publication US20080293081A1, “Fluorescence Polarization Assays for Acetyltransferase/Deacetylase Activity” (Sirtris Pharmaceuticals, Inc., priority 2005, published 2008).
Where two headings read alike, the source gives them in different places. One block for each compound: values may come before it. No end group written: not given here.

Columns and labels:
SIRT3 [1] = molecular target: T1, SIRT3 (Homo sapiens, UniProt Q9NTG7); experiment: Fluorescence polarization assay, SIRT3 deacetylation of Histone H4-based peptide substrate; format: biochemical
T1 construct: amino acid residues 102-399 of human SIRT3 with an N-terminal His-tag; His-tag (N); made in house; host or cells: E. coli
T1 sequence (Q9NTG7 102-399): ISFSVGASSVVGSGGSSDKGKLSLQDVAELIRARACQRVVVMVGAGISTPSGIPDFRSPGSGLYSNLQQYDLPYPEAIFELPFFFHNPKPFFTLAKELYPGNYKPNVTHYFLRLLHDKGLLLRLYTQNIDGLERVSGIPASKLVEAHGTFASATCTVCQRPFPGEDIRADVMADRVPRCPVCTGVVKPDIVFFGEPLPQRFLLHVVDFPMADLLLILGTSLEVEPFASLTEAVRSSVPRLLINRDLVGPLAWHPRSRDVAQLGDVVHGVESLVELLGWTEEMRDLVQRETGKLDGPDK
From the text: A fluorescence polarization assay was used to identify modulators of SIRT3 activity. The same assay may be used to identify modulators of any sirtuin protein. The assay utilizes a peptide substrate based on a fragment of Histone H4, a known sirtuin deacetylation target. […] The peptide is labeled with the fluorophore MR121 (excitation 635 nm/emission 680 nm) at the C-terminus and biotin at the N-terminus.
The peptide substrate is exposed to a sirtuin protein in the presence of NAD^+ to allow deacetylation of the substrate and render it sensitive to cleavage by trypsin. Trypsin is then added and the reaction is carried to completion (i.e., the deacetylated substrate is cleaved) releasing the MR121 fragment. Streptavidin is then added to the reaction where it can bind both the uncleaved substrate (i.e., any remaining acetylated substrate) and the non-fluorescent portion of the cleaved peptide substrate (i.e., the biotin containing fragment). The fluorescence polarization signal observed for the full length peptide substrate bound to streptavidin is higher than the fluorescence polarization signal observed for the released MR121 C-terminal fragment. Therefore, the fluorescence polarization obtained is inversely proportional to the level of deacetylation (e.g., the signal is inversely proportional to the activity of the sirtuin protein). Results are read on a microplate fluorescence polarization reader (Molecular Devices Spectramax MD) with appropriate excitation and emission filters.
The fluorescence polarization assays may be conducted as follows: 0.5 μM peptide substrate and 50 μM βNAD^+ is incubated with 2 nM of SIRT3 for 60 minutes at 37° C. in a reaction buffer (25 mM Tris-acetate pH8, 137 mM Na—Ac, 2.7 mM K—Ac, 1 mM Mg—Ac, 0.1% Pluronic F127, 10 mM CaCl2, 1 mM TCEP, 0.025% BSA). Test compounds are solubilized in DMSO and are added to the reaction at 11 concentrations ranging from 0.7 μM to 100 μM. The SIRT3 protein used in the assays corresponded to amino acid residues 102-399 of human SIRT3 with an N-terminal His-tag. The protein was overexpressed in E. coli and purified on a nickel chelate column using standard techniques. After the 60 minute incubation with SIRT3, nicotinamide is added to the reaction to a final concentration of 3 mM to stop the deacetylation reaction and 0.5 μg/mL of trypsin is added to cleave the deacetylated substrate. The reaction is incubated for 30 minutes at 37° C. in the presence of 1 mM streptavidin. Fluorescent polarization is determined at excitation (650 nm) and emissions (680 nm) wavelengths. The level of activity of the sirtuin protein in the presence of the various concentrations of test compound are then determined and may be compared to the level of activity of the sirtuin protein in the absence of the test compound, and/or the level of activity of the sirtuin proteins in the negative control (e.g., level of inhibition) and positive control (e.g., level of activation) described below.
A control for activation of sirtuin activity is conducted using 0.5 μg/mL of sirtuin protein to reach baseline deacetylation of the substrate (e.g., to determine normalized sirtuin activity).

SIRT1 [2] = molecular target: T2, SIRT1 (Homo sapiens, UniProt Q96EB6); experiment: Fluorescence polarization assay, SIRT1 deacetylation of p53-based peptide substrate; format: biochemical; details: for EC50: activation of SIRT1, compounds 1-18 with peptide 1 (MR121), compounds 19-56 with peptide 2 (5TMR), read-out: ED50 (the source's name); for IC50: inhibition of SIRT1
T2 sequence (Q96EB6 1-747): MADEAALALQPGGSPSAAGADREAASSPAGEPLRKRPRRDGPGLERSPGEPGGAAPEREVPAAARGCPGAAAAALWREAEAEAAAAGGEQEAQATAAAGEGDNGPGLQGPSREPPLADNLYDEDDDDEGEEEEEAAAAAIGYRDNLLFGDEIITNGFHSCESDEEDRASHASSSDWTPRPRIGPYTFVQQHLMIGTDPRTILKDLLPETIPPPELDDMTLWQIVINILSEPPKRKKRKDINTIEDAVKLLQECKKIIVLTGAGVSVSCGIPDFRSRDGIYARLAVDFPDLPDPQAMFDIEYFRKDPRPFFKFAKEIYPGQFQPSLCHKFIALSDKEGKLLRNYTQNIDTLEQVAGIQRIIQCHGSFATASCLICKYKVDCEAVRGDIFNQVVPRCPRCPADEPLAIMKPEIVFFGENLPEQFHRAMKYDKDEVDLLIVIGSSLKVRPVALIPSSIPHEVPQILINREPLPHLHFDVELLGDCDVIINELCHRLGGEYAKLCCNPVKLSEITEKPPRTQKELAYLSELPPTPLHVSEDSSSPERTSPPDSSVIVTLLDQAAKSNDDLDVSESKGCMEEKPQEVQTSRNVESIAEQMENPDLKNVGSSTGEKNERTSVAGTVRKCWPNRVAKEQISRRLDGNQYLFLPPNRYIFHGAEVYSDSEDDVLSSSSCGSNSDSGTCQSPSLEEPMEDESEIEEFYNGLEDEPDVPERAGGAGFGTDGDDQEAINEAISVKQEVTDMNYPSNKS

SIRT1 [3] = molecular target: T2, SIRT1; details: Sirt1, nicotinamide release, cited from earlier work
Sirt2 = molecular target: T3, Sirt2 (Homo sapiens, UniProt Q8IXJ6); details: Sirt2, Biomol Fluor de Lys product literature, cited from earlier work
T3 sequence (Q8IXJ6 1-389): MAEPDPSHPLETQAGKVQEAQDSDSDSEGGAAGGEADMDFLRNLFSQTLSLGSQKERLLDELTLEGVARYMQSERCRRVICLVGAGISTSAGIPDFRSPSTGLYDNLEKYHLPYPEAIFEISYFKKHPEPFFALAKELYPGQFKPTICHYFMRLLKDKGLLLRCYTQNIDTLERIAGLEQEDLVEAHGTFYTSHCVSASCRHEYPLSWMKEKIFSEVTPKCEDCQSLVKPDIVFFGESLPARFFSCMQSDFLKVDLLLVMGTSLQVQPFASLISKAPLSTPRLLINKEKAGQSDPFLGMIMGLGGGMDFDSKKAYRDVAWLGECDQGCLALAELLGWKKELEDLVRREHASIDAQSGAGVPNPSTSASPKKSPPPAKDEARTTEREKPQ

Sirt3 [4] = molecular target: T4, Sirt3 (Homo sapiens, UniProt Q9NTG7); details: Sirt3, Biomol Fluor de Lys product literature, cited from earlier work
T4 sequence (Q9NTG7 1-399): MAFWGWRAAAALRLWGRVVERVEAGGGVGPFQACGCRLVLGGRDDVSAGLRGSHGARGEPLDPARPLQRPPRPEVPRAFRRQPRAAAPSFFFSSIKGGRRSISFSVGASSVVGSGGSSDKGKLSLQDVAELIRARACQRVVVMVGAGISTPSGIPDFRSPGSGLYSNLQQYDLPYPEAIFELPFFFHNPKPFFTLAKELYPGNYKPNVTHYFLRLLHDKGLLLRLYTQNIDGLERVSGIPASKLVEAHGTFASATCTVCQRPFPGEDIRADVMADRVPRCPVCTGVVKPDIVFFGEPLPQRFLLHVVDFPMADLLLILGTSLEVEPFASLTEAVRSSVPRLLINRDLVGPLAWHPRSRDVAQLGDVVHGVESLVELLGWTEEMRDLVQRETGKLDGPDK

SIRT1 [5] = molecular target: T2, SIRT1; details: Sirt1, Biomol Fluor de Lys product literature, cited from earlier work
[6] = read-out: ED50 (the source's name)
[7] = Km of NAD with the named peptide substrate, read-out: NAD Km
[8] = Km of NAD with the named peptide substrate, Kaeberlein et al., read-out: NAD Km
[9] = Kaeberlein et al., read-out: Peptide Km

EC50 (SIRT3 [1]; [6]): 51 to 100 µM
Compound: O=C(NCc1ccncc1)c1cc(-c2ccsc2)nc2ccccc12 [Compound 1]

EC50 (SIRT1 [2]): 51 to 100 µM
Compound: O=C(NNc1c2ccccc2nc2ccccc12)c1ccccn1 [Compound 2]

EC50 (SIRT1 [2]): 101 to 150 µM
Compound: O=C(NCCN1CCOCC1)c1cc(-c2cccs2)nc2ccccc12 [Compound 5]

EC50 (SIRT1 [2]): 101 to 150 µM
Compound: O=C(NCCN1CCOCC1)c1cc(-c2cccs2)nc2ccc(F)cc12 [Compound 7]

EC50 (SIRT3 [1]; [6]): 51 to 100 µM
Compound: O=C(NNc1c2ccccc2nc2ccccc12)c1cccnc1 [Compound 11]

EC50 (SIRT1 [2]): 51 to 100 µM
Compound: Cc1ccc2nc(-c3ccccc3)cc(C(=O)NCCN3CCOCC3)c2c1 [Compound 12]

EC50 (SIRT1 [2]): 101 to 150 µM
Compound: FC(F)(F)c1ccnc(NNc2c3ccccc3nc3ccccc23)n1 [Compound 33]

IC50 (SIRT1 [2]): > 150 µM
Compound: Cc1ccc2nc(-c3ccco3)cc(C(=O)NCCCCN3CCOCC3)c2c1 [Compound 72]

IC50 (SIRT1 [2]): < 50 µM
Compound: O=C(NNc1c2c(nc3ccccc13)CCCC2)c1ccccn1 [Compound 73]

IC50 (SIRT1 [2]): > 150 µM
Compound: Cc1cc(C)nc(Nc2c3ccccc3nc3ccccc23)c1 [Compound 74]

IC50 (SIRT1 [2]): < 50 µM
Compound: COc1cc(C(=O)NNC(=O)c2c3ccccc3nc3ccccc23)cc(OC)c1OC [Compound 75]

IC50 (SIRT1 [2]): > 150 µM
Compound: Cc1nc(-c2cccc(NC(=O)c3c4ccccc4nc4ccccc34)c2)cs1 [Compound 76]

IC50 (SIRT1 [2]): > 150 µM
Compound: COc1ccccc1NC(=O)Nc1c2c(nc3ccccc13)CCCC2 [Compound 77]

IC50 (SIRT1 [2]): 101 to 150 µM
Compound: COc1cc(NC(=O)Nc2c3c(nc4ccccc24)CCCC3)cc(OC)c1OC [Compound 78]

IC50 (SIRT1 [2]): > 150 µM
Compound: O=C(Nc1ccccc1)c1c2c(nc3ccccc13)-c1ccccc1CC2 [Compound 79]

EC50 (SIRT3 [1]; [6]): 51 to 100 µM
Compound: O=C(O)c1c(O)c(-c2ccccc2)nc2ccccc12 [Compound 80]

IC50 (SIRT3 [1]): 101 to 150 µM
Compound: CC(=O)Nc1ccc(Nc2cc(C)nc3c(C)cccc23)cc1 [Compound 81]

EC50 (SIRT3 [1]; activation of SIRT3, read-out: ED50 for activation of SIRT3): > 300 µM
Compound: Oc1ccc(C=Cc2cc(O)cc(O)c2)cc1 [resveratrol, reference compound]

Compound: p53 19 mer (aa 368-386) no FL: p53 19 mer (aa 368-386) peptide substrate without fluorescent label, McDonagh et al. (HLKSKKGQSTSRHKKLMFK; UniProt P04637 368-386, looked up, fragment)
Km (SIRT1 [3]; Km of NAD with the named peptide substrate, McDonagh et al., read-out: NAD Km): 133 µM
Km (SIRT1 [3]; McDonagh et al., read-out: Peptide Km): 10.3 µM

Compound: p53 (aa 317-320) *FL: p53 (aa 317-320) peptide substrate with fluorescent label, Biomol Fluor de Lys SIRT2 and SIRT3 kits (QPKK; also: fluorescent label; UniProt P04637 317-320, looked up, fragment)
Km (Sirt2; [7]): 547 µM
Km (Sirt2; read-out: Peptide Km): 186 µM
Km (Sirt3 [4]; [7]): 2030 µM
Km (Sirt3 [4]; read-out: Peptide Km): 32 µM

Compound: p53 (aa 368-386) *FL: p53 (aa 368-386) peptide substrate with fluorescent label, Kaeberlein et al. (HLKSKKGQSTSRHKKLMFK; also: fluorescent label; UniProt P04637 368-386, looked up, fragment)
Km (SIRT1 [3]; [8]): 192 µM
Km (SIRT1 [3]; [9]): 87.6 µM

Compound: p53 (aa 368-386) no FL: p53 (aa 368-386) peptide substrate without fluorescent label, Kaeberlein et al. (HLKSKKGQSTSRHKKLMFK; UniProt P04637 368-386, looked up, fragment)
Km (SIRT1 [3]; [8]): 132 µM
Km (SIRT1 [3]; [9]): 10.3 µM

Compound: p53 (aa 379-382) *FL: p53 (aa 379-382) peptide substrate with fluorescent label, Biomol Fluor de Lys SIRT1 kit (RHKK; also: fluorescent label; UniProt P04637 379-382, looked up, fragment)
Km (SIRT1 [5]; [7]): 558 µM
Km (SIRT1 [5]; read-out: Peptide Km): 64 µM
